Test results reported in patent US6426229B1, “Chelating agent and detergent comprising the same” (Mitsubishi Rayon Co., Ltd., priority 1995, dated 2002).

Experiment: Compression strength (hardening property) of powder stored under load for 2 months
Type: physicochemical
Settings: 20-30° C., relative humidity 40-70%
Description: Method for the Measurement of Compression Strength
(1) A test sample (500 g) is put in a poly-ethylene bag of 20 cm×20 cm in a room at a temperature of 20-30° C. and a relative humidity of 40-70%. The powder is levelled to an area of 20 cm×20 cm and air is forced out of the bag, and, then, the bag is sealed. This bag is further put in a kraft bag and this kraft bag is sealed.
(2) The kraft bag of (1) is placed horizontally on a flat plate and a plate is put thereon. […]
(3) With keeping the temperature of 20-30° C. and the relative humidity of 40-70%, the test sample is taken out after lapse of 2 months from the starting of application of load. Several test pieces (4 cm long×4 cm broad×2 cm high) are cut out from the sample.

[1] = Load 100 (table head [Kg]; text 100 g/cm^2)
[2] = Load 300 (table head [Kg]; text 300 g/cm^2)
[3] = Load 200 (table head [Kg]; text 200 g/cm^2)

Row | SMILES | Compression strength after stored for 2 months [1] [Kg/cm^2] | Compression strength after stored for 2 months [3] [Kg/cm^2] | further results
1 | O=C(O)CCN[C@@H](CC(=O)O)C(=O)O [compound 6, (S)-aspartic acid-N-monopropionic acid, reference compound] | 2.5 |  | 
2 | O=C([O-])CC(NCCNC(CC(=O)[O-])C(=O)[O-])C(=O)[O-].[Na+].[Na+].[Na+].[Na+] (centres unmarked) [compound 16, tetrasodium ethylenediaminedisuccinate, reference compound] | 2.8 |  | 
3 | O=C(O)CC(NCCCNC(CC(=O)O)C(=O)O)C(=O)O (centres unmarked) [Example 73, 1,3-propanediaminedisuccinic acid] |  |  | Compression strength after stored for 2 months [2]: 1.1 Kg/cm^2
4 | O=C([O-])CN[C@@H](CC(=O)[O-])C(=O)[O-].[Na+].[Na+].[Na+] [compound 1, trisodium salt of (S)-aspartic acid-N-monoacetic acid, reference compound] | 2.6 |  | 
5 | O=C([O-])C[C@@H](C(=O)[O-])N(CC(=O)[O-])CC(=O)[O-].[Na+].[Na+].[Na+].[Na+] [Example 3, tetrasodium salt of (S)-aspartic acid-N,N-diacetic acid] |  | 0.9 | 
6 | O=C(O)CN(CCS(=O)(=O)O)CC(=O)O [Example 34, taurine-N,N-diacetic acid] |  | 1.2 | 
7 | O=C(O)CN(CC(=O)O)c1ccccc1C(=O)O [Example 42, anthranilic acid-N,N-diacetic acid] |  |  | Compression strength after stored for 2 months [2]: 1.1 Kg/cm^2
8 | O=C([O-])CC(NCCNC(CC(=O)[O-])C(=O)[O-])C(=O)[O-].[Cu+2].[Na+].[Na+] (centres unmarked) [Example 77, copper disodium ethylenediaminedisuccinate] |  | 1.2 | 
9 | O=C([O-])CN(CC(=O)[O-])c1ccccc1C(=O)[O-].[Na+].[Na+].[Na+] [compound 11, trisodium salt of anthranilic acid-N,N-diacetic acid, reference compound] | 2.5 |  | 
10 | O=C([O-])C[C@@H](C(=O)[O-])N(CC(=O)[O-])CC(=O)[O-].[Na+].[Na+].[Na+].[Na+] [Example 11, tetrasodium salt of (S)-aspartic acid-N,N-diacetic acid] |  |  | Compression strength after stored for 2 months [2]: 0.8 Kg/cm^2
11 | O=C(O)C[C@H](NCCN[C@@H](CC(=O)O)C(=O)O)C(=O)O [compound 21, ethylenediaminedisuccinic acid, reference compound] | 2.8 |  | 
12 | O=C([O-])CC(NCCNC(CC(=O)[O-])C(=O)[O-])C(=O)[O-].[Na+].[Na+].[Na+].[Na+] (centres unmarked) [Example 56, tetrasodium ethylenediaminedisuccinate] |  |  | Compression strength after stored for 2 months [2]: 0.8 Kg/cm^2
13 | O=C([O-])CC(NCCNC(CC(=O)[O-])C(=O)[O-])C(=O)[O-].[Na+].[Na+].[Na+].[Na+] (centres unmarked) [Example 51, tetrasodium ethylenediaminedisuccinate] | 1.2 |  | 
14 | O=C([O-])CCN[C@@H](CC(=O)[O-])C(=O)[O-].[Na+].[Na+].[Na+] [compound 2, trisodium salt of (S)-aspartic acid-N-monopropionic acid, reference compound] | 3.0 |  | 
15 | O=C([O-])CC(NCCNC(CC(=O)[O-])C(=O)[O-])C(=O)[O-].[Na+].[Na+].[Na+].[Na+] (centres unmarked) [Example 46, tetrasodium ethylenediaminedisuccinate] |  | 1.1 | 
16 | O=C(O)C[C@H](NCC(O)CN[C@@H](CC(=O)O)C(=O)O)C(=O)O [Example 70, (S,S)-2-hydroxy-1,3-propanediaminedisuccinic acid] | 0.8 |  | 
17 | O=C(O)C[C@@H](C(=O)O)N(CC(=O)O)CC(=O)O [Example 19, (S)-aspartic acid-N,N-diacetic acid] | 1.1 |  | 
18 | O=C(O)C[C@@H](C(=O)O)N(CC(=O)O)CC(=O)O [Example 15, (S)-aspartic acid-N,N-diacetic acid] |  | 0.9 | 
19 | O=C([O-])CN[C@@H](CC(=O)[O-])C(=O)[O-].[Na+].[Na+].[Na+] [Example 5, trisodium salt of (S)-aspartic acid-N-monoacetic acid] | 1.2 |  | 
20 | O=C([O-])CCN[C@@H](CC(=O)[O-])C(=O)[O-].[Na+].[Na+].[Na+] [Example 2, trisodium salt of (S)-aspartic acid-N-monopropionic acid] |  | 1.0 | 
21 | C[C@@H](C(=O)[O-])N(CC(=O)[O-])CC(=O)[O-].[Na+].[Na+].[Na+] [Example 12, trisodium salt of (S)-α-alanine-N,N-diacetic acid] |  |  | Compression strength after stored for 2 months [2]: 0.9 Kg/cm^2

Row | SMILES | Compression strength after stored for 2 months [1] [Kg/cm^2] | Compression strength after stored for 2 months [3] [Kg/cm^2] | further results
22 | O=C([O-])CN[C@@H](CC(=O)[O-])C(=O)[O-].[Na+].[Na+].[Na+] [Example 9, trisodium salt of (S)-aspartic acid-N-monoacetic acid] |  |  | Compression strength after stored for 2 months [2]: 0.8 Kg/cm^2
23 | O=C(O)C[C@H](NCCN[C@@H](CC(=O)O)C(=O)O)C(=O)O [compound 22, (S,S)-ethylenediaminedisuccinic acid, reference compound] | 2.5 |  | 
24 | O=C(O)C[C@H](NCCN[C@@H](CC(=O)O)C(=O)O)C(=O)O [Example 62, (S,S)-ethylenediaminedisuccinic acid] |  | 1.0 | 
25 | O=C(O)CN(CCS(=O)(=O)O)CC(=O)O [Example 37, taurine-N,N-diacetic acid] | 1.0 |  | 
26 | O=C([O-])C[C@H](NCC(O)CN[C@@H](CC(=O)[O-])C(=O)[O-])C(=O)[O-].[Na+].[Na+].[Na+].[Na+] [Example 55, tetrasodium (S,S)-2-hydroxy-1,3-propanediaminedisuccinate] | 1.2 |  | 
27 | O=C([O-])CCN[C@@H](CC(=O)[O-])C(=O)[O-].[Na+].[Na+].[Na+] [Example 10, trisodium salt of (S)-aspartic acid-N-monopropionic acid] |  |  | Compression strength after stored for 2 months [2]: 1.0 Kg/cm^2
28 | C[C@@H](C(=O)[O-])N(CC(=O)[O-])CC(=O)[O-].[Na+].[Na+].[Na+] [compound 4, trisodium salt of (S)-α-alanine-N,N-diacetic acid, reference compound] | 2.8 |  | 
29 | O=C([O-])C[C@H](NCCN[C@@H](CC(=O)[O-])C(=O)[O-])C(=O)[O-].[Na+].[Na+].[Na+].[Na+] [Example 47, tetrasodium (S,S)-ethylenediaminedisuccinate] |  | 1.2 | 
30 | O=C([O-])C[C@@H](C(=O)[O-])N(CC(=O)[O-])CC(=O)[O-].[Na+].[Na+].[Na+].[Na+] [compound 3, tetrasodium salt of (S)-aspartic acid-N,N-diacetic acid, reference compound] | 3.2 |  | 
31 | O=C(O)C[C@H](NCCCN[C@@H](CC(=O)O)C(=O)O)C(=O)O [Example 64, (S,S)-1,3-propanediaminedisuccinic acid] |  | 0.9 | 
32 | O=C(O)CN(CC(=O)O)c1ccccc1C(=O)O [Example 36, anthranilic acid-N,N-diacetic acid] |  | 0.9 | 
33 | O=C([O-])C[C@H](NCCCN[C@@H](CC(=O)[O-])C(=O)[O-])C(=O)[O-].[Na+].[Na+].[Na+].[Na+] [compound 19, tetrasodium (S,S)-1,3-propanediaminedisuccinate, reference compound] | 2.9 |  | 
34 | O=C([O-])C[C@H](NCCN[C@@H](CC(=O)[O-])C(=O)[O-])C(=O)[O-].[Na+].[Na+].[Ni+2] [Example 81, nickel disodium (S,S)-ethylenediaminedisuccinate] |  | 1.2 | 
35 | O=C([O-])CC(NCCCNC(CC(=O)[O-])C(=O)[O-])C(=O)[O-].[Na+].[Na+].[Na+].[Na+] (centres unmarked) [Example 53, tetrasodium 1,3-propanediaminedisuccinate] | 0.8 |  | 
36 | O=C(O)C[C@H](NCC(O)CN[C@@H](CC(=O)O)C(=O)O)C(=O)O [compound 25, (S,S)-2-hydroxy-1,3-propanediaminedisuccinic acid, reference compound] | 2.5 |  | 
37 | O=C(O)C[C@H](NCCN[C@@H](CC(=O)O)C(=O)O)C(=O)O [Example 66, ethylenediaminedisuccinic acid] | 0.8 |  | 
38 | O=C([O-])C[C@H](NCCN[C@@H](CC(=O)[O-])C(=O)[O-])C(=O)[O-].[Cu+2].[Na+].[Na+] [Example 80, copper disodium (S,S)-ethylenediaminedisuccinate] |  | 1.0 | 
39 | O=C(O)CC(NCCCNC(CC(=O)O)C(=O)O)C(=O)O (centres unmarked) [compound 23, 1,3-propanediaminedisuccinic acid, reference compound] | 2.7 |  | 
40 | O=C(O)CN(CC(=O)O)c1ccccc1C(=O)O [Example 39, anthranilic acid-N,N-diacetic acid] | 1.2 |  | 
41 | C[C@@H](C(=O)[O-])N(CC(=O)[O-])CC(=O)[O-].[Na+].[Na+].[Na+] [Example 4, trisodium salt of (S)-α-alanine-N,N-diacetic acid] |  | 1.1 | 
